Series [1] deals with inflammation index (Inflammation Gene Expression Panel loci). Nature of the series: Inflammation index in rheumatoid arthritis patients under therapy. It counts as in vivo, human. The text has this: FIG. 17A further illustrates the consistency of inflammatory gene expression, illustrated here with respect to 7 loci of (of the Inflammation Gene Expression Panel of Table 1), in a population of 44 normal, undiagnosed blood donors. For each individual locus is shown the range of values lying within ±2 standard deviations of the mean expression value, which corresponds to 95% of a normally distributed population. Notwithstanding the great width of the confidence interval (95%), the measured gene expression value (ΔCT)—remarkably—still lies within 10% of the mean, regardless of the expression level involved. As described in further detail below, for a given biological condition an index can be constructed to provide a measurement of the condition. This is possible as a result of the conjunction of two circumstances: (i) there is a remarkable consistency of Gene Expression Profiles with respect to a biological condition across a population and (ii) there can be employed procedures that provide substantially reproducible measurement of constituents in a Gene Expression Panel giving rise to a Gene Expression Profile, under measurement conditions wherein specificity and efficiencies of amplification for all constituents of the panel are substantially similar and which therefore provides a measurement of a biological condition. Accordingly, a function of the expression values of representative constituent loci of FIG. 17A is here used to generate an inflammation index value, which is normalized so that a reading of 1 corresponds to constituent expression values of healthy subjects, as shown in the right-hand portion of FIG. 17A.
In FIG. 17B, an inflammation index value was determined for each member of a population of 42 normal undiagnosed blood donors, and the resulting distribution of index values, shown in the figure, can be seen to approximate closely a normal distribution, notwithstanding the relatively small population size. The values of the index are shown relative to a 0-based median, with deviations from the median calibrated in standard deviation units. Thus […] of the population lies within +1 and −1 of a 0 value.
FIG. 17C illustrates the use of the same index as FIG. 17B, where the inflammation median for a normal population has been set to zero and both normal and diseased subjects are plotted in standard deviation units relative to that median. An inflammation index value was determined for each member of a normal, undiagnosed population of 70 individuals (black bars). The resulting distribution of index values, shown in FIG. 17C, can be seen to approximate closely a normal distribution. Similarly, index values were calculated for individuals from two diseased population groups, (1) rheumatoid arthritis patients treated with methotrexate (MTX) who are about to change therapy to more efficacious drugs (e.g., TNF inhibitors) (hatched bars), and (2) rheumatoid arthritis patients treated with disease modifying anti-rheumatoid drugs (DMARDS) other than MTX, who are about to change therapy to more efficacious drugs (e.g., MTX). […] This figure thus illustrates the utility of an index to derived from Gene Expression Profile data to evaluate disease status and to provide an objective and quantifiable treatment objective. When these two populations were treated appropriately, index values from both populations returned to a more normal distribution (data not shown here).
This subject in fact was also on a regimen of an anti-inflammation steroid (prednisone) that was being tapered; within approximately one week after the inflammation index was sampled, the subject experienced a significant flare of clinical symptoms.

Series [2] shares this test system. The series is described as follows: Inflammation index in subject with inflammatory bowel disease. Type of series: in vivo, human. The note with it: single subject with inflammatory bowel disease. The text has this: FIG. 24 illustrates use of the inflammation index for assessment of a single subject suffering from inflammatory bowel disease, for whom treatment with Remicade was initiated in three doses. […] Again, the index, besides providing a measure of biological condition, is here used to measure the effectiveness of therapy (Remicade), as well as to provide a target for therapeutic intervention in terms of both dose and schedule.

Series [3] shares this test system. Particulars: studies have shown; cited from earlier work.
Series [4] deals with IL1A, IL1B, TNF, IFNG and IL10. The series is described as follows: Acute Inflammation Index from whole blood gene expression of treated human subject. Type of series: in vivo. The note with it: single patient with optic neuritis; oral prednisone at 60 mg per day tapered to 10 mg per day, after IV steroid. The text has this:
(§1) For measuring the amount of a particular RNA in a sample, we have used methods known to one of ordinary skill in the art to extract and quantify transcribed RNA from a sample with respect to a constituent of a Gene Expression Panel. (See detailed protocols below. Also see PCT application publication number WO 98/24935 herein incorporated by reference for RNA analysis protocols). Briefly, RNA is extracted from a sample such as a tissue, body fluid, or culture medium in which a population of a subject might be growing. For example, cells may be lysed and RNA eluted in a suitable solution in which to conduct a DNAse reaction. First strand synthesis may be performed using a reverse transcriptase. Gene amplification, more specifically quantitative PCR assays, can then conducted and the gene of interest size calibrated against a marker such as 18S rRNA (Hirayama et al., Blood 92, 1998: 46-52). Samples are measured in multiple duplicates, for example, 4 replicates. Relative quantitation of the mRNA is determined by the difference in threshold cycles between the internal control and the gene of interest In an embodiment of the invention, quantitative PCR is performed using amplification, reporting agents and instruments such as those supplied commercially by Applied Biosystems (Foster City, Calif.). […]

In series [5] the test system is Inflammation Gene Expression Panel of Table 1 (24 of 48 loci). Nature of the series: Inflammation Gene Expression Panel in whole blood after single oral dose of prednisone. Type of series: in vivo. The note with it: single human subject, single 60 mg oral dose.
Text: as §1

Series [6] relates to 5 genes of the Inflammation Gene Expression Panel. The series is described as follows: Whole blood samples after prednisone dose, challenged with lipopolysaccharide, gene expression profile. Particulars: challenged with 0.1 ng/ml lipopolysaccharide. It counts as in vivo, human. The procedure: The samples were taken at the time of administration (t=0) of the prednisone, then at two and 24 hours after such administration. Each whole blood sample was challenged by the addition of 0.1 ng/ml of lipopolysaccharide (a Gram-negative endotoxin) and a gene expression profile of the sample, post-challenge, was determined.

[7] abbreviates: 10 stable rheumatoid arthritis patients treated with Enbrel (FIG. 22).

For the compound Remicade: another TNF inhibitor, the inflammation index entry in series [1] (10 stable rheumatoid arthritis patients treated with Remicade (FIG. 23), all but one of the patients) is “at or below normal”; in series [2] (24 hours after the first treatment), “returned to the normal range”; in series [2] (just prior to the second dose) it was “elevated”; in series [2] (prior to the third dose) it was “in the normal range”. In series [1] (two of the 10 rheumatoid arthritis patients treated with Remicade (FIG. 23)), the “inflammation index suggesting immunosuppressive response” value is recorded as “abnormally low inflammation index”. The “infections in treated subjects” value in series [3] is given as “associated with serious infections in some subjects”.
For Enbrel, in series [1] (setting [7]), the inflammation index result was “comes much closer to normal” and the “patients with inflammation index in the normal range” value came out at 80%.
Consider `CN(Cc1cnc2nc(N)nc(N)c2n1)c1ccc(C(=O)N[C@@H](CCC(=O)O)C(=O)O)cc1` [methotrexate], for which the inflammation index entry in series [1] (10 stable rheumatoid arthritis patients treated with methotrexate (FIG. 21)) was “elevated compared to normal”. Also, the “inflammation index values in comparison to the normal distribution” value in series [1] (rheumatoid arthritis patients treated with MTX who are about to change therapy (FIG. 17C)) is recorded as “skewed upward”.
Take `C[C@]12C=CC(=O)C=C1CC[C@@H]1[C@@H]2C(=O)C[C@@]2(C)[C@H]1CC[C@]2(O)C(=O)CO` [prednisone]: the acute inflammation index entry in series [4] is listed as “goes up”. The “inflammatory gene expression relative to baseline” value in series [5] (2 hr post dose) was “decreased expression of most of inflammation-related gene loci”. The “inflammatory gene expression relative to baseline” value in series [5] (24 hr post dose, loci reduced at 2 hours) was “elevated gene expression levels”. Also, in series [6] (24 hours post administration), the “inhibitory effect on gene expression of the 5 loci” value is “no longer apparent” and the “number of the 5 loci with gene expression higher than at t=0 (rebound effect)” value was 3. Further, in series [6] (two-hour sample), the “gene expression of the 5 loci in relation to t=0” value is “dramatically reduced gene expression”.

The values above are taken from patent publication US8055452B2, “Identification, monitoring and treatment of disease and characterization of biological condition using gene expression profiles” (Life Technologies Corporation, priority 2001, dated 2011).
